In brackets after ≈: the same amount, converted by molar mass.
What was measured:
Test in all cases: In vitro antibacterial evaluation: minimum inhibitory concentration (MIC), broth dilution method
Type in all cases: cell-based
Enterococcus sp. = settings: 18 hours at 35° C.
In short: (§1)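 MIC read as lowest drug level preventing visible growth. Organisms at 5×10^5 CFU/mL were exposed to a 64-0.06 μg/mL dilution series in Muller-Hinton II […] following NCCLS broth dilution standard M7-A2.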

Escherichia coli = settings: 18 hours at 35° C.
In short: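 First, organisms are seeded at 5×10^5 CFU/mL into Muller-Hinton II […]. Next, antibiotic is applied across 64-0.06 μg/mL by broth dilution (NCCLS M7-A2). Finally, the lowest inhibitory concentration is recorded as MIC.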

Staphylococcus sp. = test system: Staphylococcus sp.
In short: as §1

Streptococcus sp. = settings: 18 hours at 35° C.
In short: as §1

[1] = broth dilution, inoculum 5×10^5 CFU/mL

CC(C1CCCCC1)C1NC(=O)CNC(=O)C(CO)NC(=O)C(C(O)C2CNC(=N)N2C2OC(CO)C(O)C(O)C2O)NC(=O)C(C(O)C2CNC(=N)N2)NC(=O)C(Cc2ccc(OC3OC(CO)C(OC4OC5COC(c6ccccc6)OC5C(O)C4O)C(O)C3O)cc2)NC1=O (stereo not drawn) [Example 201, Cyclo[3-cyclohexyl-2-aminobutanoyl-O-[4-O-[4,6-O-benzylidenehexonyranosyl]hexopyranosyl]tyrosyl-3-(2-iminoimidazolidin-4-yl)seryl-3-(3-hexopyranosyl-2-iminoimidazolidin-4-yl)serylserylglycyl]]
MIC Enterococcus avium (GC 4558) (Enterococcus sp.; Enterococcus avium (GC 4558)): 1 µg/mL (≈ 0.72 µM) | MIC Enterococcus faecalis (ATCC 29212) (Enterococcus sp.; Enterococcus faecalis (ATCC 29212)): 1 µg/mL (≈ 0.72 µM) | MIC Enterococcus faecalis (GC 2242) (Enterococcus sp.; Enterococcus faecalis (GC 2242)): 1 µg/mL (≈ 0.72 µM) | MIC Enterococcus faecalis (GC 2691) (Enterococcus sp.; Enterococcus faecalis (GC 2691)): 1 µg/mL (≈ 0.72 µM) | MIC Enterococcus faecalis (GC 3059) (Enterococcus sp.; Enterococcus faecalis (GC 3059)): 1 µg/mL (≈ 0.72 µM) | MIC Enterococcus faecalis (GC 4552) (Enterococcus sp.; Enterococcus faecalis (GC 4552)): 1 µg/mL (≈ 0.72 µM) | MIC Enterococcus faecalis (GC 4553) (Enterococcus sp.; Enterococcus faecalis (GC 4553)): 1 µg/mL (≈ 0.72 µM) | MIC Enterococcus faecalis (GC 4554) (Enterococcus sp.; Enterococcus faecalis (GC 4554)): 1 µg/mL (≈ 0.72 µM) | MIC Enterococcus faecalis (GC 6189) (Enterococcus sp.; Enterococcus faecalis (GC 6189)): 1 µg/mL (≈ 0.72 µM) | MIC Enterococcus faecium (GC 2243) (Enterococcus sp.; Enterococcus faecium (GC 2243)): 1 µg/mL (≈ 0.72 µM) | MIC Enterococcus faecium (GC 4556) (Enterococcus sp.; Enterococcus faecium (GC 4556)): 1 µg/mL (≈ 0.72 µM) | MIC Enterococcus faecium (GC 4557) (Enterococcus sp.; Enterococcus faecium (GC 4557)): 0.5 µg/mL (≈ 0.36 µM) | MIC Enterococcus avium (GC 4558) (Enterococcus sp.; [1]): 1 µg/mL (≈ 0.72 µM) | MIC Enterococcus faecalis (ATCC 29212) (Enterococcus sp.; [1]): 1 µg/mL (≈ 0.72 µM) | MIC Enterococcus faecalis (GC 2242) (Enterococcus sp.; [1]): 1 µg/mL (≈ 0.72 µM) | MIC Enterococcus faecalis (GC 2691) (Enterococcus sp.; [1]): 1 µg/mL (≈ 0.72 µM) | MIC Enterococcus faecalis (GC 3059) (Enterococcus sp.; [1]): 1 µg/mL (≈ 0.72 µM) | MIC Enterococcus faecalis (GC 4552) (Enterococcus sp.; [1]): 1 µg/mL (≈ 0.72 µM) | MIC Enterococcus faecalis (GC 4553) (Enterococcus sp.; [1]): 1 µg/mL (≈ 0.72 µM) | MIC Enterococcus faecalis (GC 4554) (Enterococcus sp.; [1]): 1 µg/mL (≈ 0.72 µM) | MIC Enterococcus faecalis (GC 6189) (Enterococcus sp.; [1]): 1 µg/mL (≈ 0.72 µM) | MIC Enterococcus faecium (GC 2243) (Enterococcus sp.; [1]): 1 µg/mL (≈ 0.72 µM) | MIC Enterococcus faecium (GC 4556) (Enterococcus sp.; [1]): 1 µg/mL (≈ 0.72 µM) | MIC Enterococcus faecium (GC 4557) (Enterococcus sp.; [1]): 0.5 µg/mL (≈ 0.36 µM) | MIC Escherichia coli (ATCC 25922) (Escherichia coli; Escherichia coli (ATCC 25922)): 16 µg/mL (≈ 11.5 µM) | MIC Escherichia coli (GC 4559) (Escherichia coli; Escherichia coli (GC 4559)): 16 µg/mL (≈ 11.5 µM) | MIC Escherichia coli (GC 4560) (Escherichia coli; Escherichia coli (GC 4560)): 0.25 µg/mL (≈ 0.18 µM) | MIC Staphylococcus aureus (ATCC 29213) (Staphylococcus sp.; strain ATCC 29213): 0.25 µg/mL (≈ 0.18 µM) | MIC Staphylococcus aureus (GC 1131) (Staphylococcus sp.; strain GC 1131): 0.25 µg/mL (≈ 0.18 µM) | MIC Staphylococcus aureus (GC 3051) (Staphylococcus sp.; strain GC 3051): 0.5 µg/mL (≈ 0.36 µM) | MIC Staphylococcus aureus (GC 3053) (Staphylococcus sp.; strain GC 3053): 0.5 µg/mL (≈ 0.36 µM) | MIC Staphylococcus aureus (GC 4541) (Staphylococcus sp.; strain GC 4541): 0.5 µg/mL (≈ 0.36 µM) | MIC Staphylococcus aureus (GC 4542) (Staphylococcus sp.; strain GC 4542): 0.25 µg/mL (≈ 0.18 µM) | MIC Staphylococcus aureus-SMITH (GC 4543) (Staphylococcus sp.; strain GC 4543): 0.5 µg/mL (≈ 0.36 µM) | MIC Staphylococcus aureus (GC 4544) (Staphylococcus sp.; strain GC 4544): 0.25 µg/mL (≈ 0.18 µM) | MIC Staphylococcus aureus (GC 4545) (Staphylococcus sp.; strain GC 4545): 0.25 µg/mL (≈ 0.18 µM) | MIC Staphylococcus haemolyticus (GC 4546) (Staphylococcus sp.; strain GC 4546): 0.25 µg/mL (≈ 0.18 µM) | MIC Coagulase Negative Staphylococcus (GC 4547) (Staphylococcus sp.; strain GC 4547): 0.25 µg/mL (≈ 0.18 µM) | MIC Coagulase Negative Staphylococcus (GC 4548) (Staphylococcus sp.; strain GC 4548): 0.25 µg/mL (≈ 0.18 µM) | MIC Coagulase Negative Staphylococcus (GC 4549) (Staphylococcus sp.; strain GC 4549): 0.25 µg/mL (≈ 0.18 µM) | MIC Coagulase Negative Staphylococcus (GC 4551) (Staphylococcus sp.; strain GC 4551): 0.25 µg/mL (≈ 0.18 µM) | MIC Streptococcus agalactiae (GC 4564) (Streptococcus sp.; Streptococcus agalactiae (GC 4564)): <0.12 µg/mL | MIC Streptococcus pneumoniae (ATCC 6301) (Streptococcus sp.; Streptococcus pneumoniae (ATCC 6301)): <0.12 µg/mL | MIC Streptococcus pneumoniae (GC 1894) (Streptococcus sp.; Streptococcus pneumoniae (GC 1894)): <0.12 µg/mL | MIC Streptococcus pneumoniae (GC 4565) (Streptococcus sp.; Streptococcus pneumoniae (GC 4565)): <0.12 µg/mL | MIC Streptococcus pyogenes (GC 4563) (Streptococcus sp.; Streptococcus pyogenes (GC 4563)): <0.12 µg/mL | MIC Streptococcus agalactiae (GC 4564) (Streptococcus sp.; [1]): <0.12 µg/mL | MIC Streptococcus pneumoniae (ATCC 6301) (Streptococcus sp.; [1]): <0.12 µg/mL | MIC Streptococcus pneumoniae (GC 1894) (Streptococcus sp.; [1]): <0.12 µg/mL | MIC Streptococcus pneumoniae (GC 4565) (Streptococcus sp.; [1]): <0.12 µg/mL | MIC Streptococcus pyogenes (GC 4563) (Streptococcus sp.; [1]): <0.12 µg/mL
